Test results published in patent US7183061B2, “Method of expressing Heliothis ecdysone receptor fusion protein” (Syngenta Limited, priority 1996, dated 2007).

How the values were obtained:
[1] = tested on: glucocorticoid receptor transactivating and DNA binding domains fused to the ecdysone receptor hinge and ligand binding domains; settings: mammalian cells; cited from earlier work
[2] = target: chimeric glucocorticoid VP16/Heliothis ecdysone receptor (UniProt O18473+P04150, DEL153-392/E478D/INS403[…]/INS405[…]/M398P/P396A/P400T/P406S/R399P/S397A/Y393A); assay: Maize protoplast GUS reporter assay with pMF6GRVP16HEcR and p221.9GRE6; format: cell-based, Heliothis virescens; parameters: expressed in transfected cells; host or cells: maize protoplasts (A10); stably transformed tobacco plants, pES3/pES4 (A11)
Sequence of chimeric glucocorticoid VP16/Heliothis ecdysone receptor (P04150+O18473 fused with the stated changes): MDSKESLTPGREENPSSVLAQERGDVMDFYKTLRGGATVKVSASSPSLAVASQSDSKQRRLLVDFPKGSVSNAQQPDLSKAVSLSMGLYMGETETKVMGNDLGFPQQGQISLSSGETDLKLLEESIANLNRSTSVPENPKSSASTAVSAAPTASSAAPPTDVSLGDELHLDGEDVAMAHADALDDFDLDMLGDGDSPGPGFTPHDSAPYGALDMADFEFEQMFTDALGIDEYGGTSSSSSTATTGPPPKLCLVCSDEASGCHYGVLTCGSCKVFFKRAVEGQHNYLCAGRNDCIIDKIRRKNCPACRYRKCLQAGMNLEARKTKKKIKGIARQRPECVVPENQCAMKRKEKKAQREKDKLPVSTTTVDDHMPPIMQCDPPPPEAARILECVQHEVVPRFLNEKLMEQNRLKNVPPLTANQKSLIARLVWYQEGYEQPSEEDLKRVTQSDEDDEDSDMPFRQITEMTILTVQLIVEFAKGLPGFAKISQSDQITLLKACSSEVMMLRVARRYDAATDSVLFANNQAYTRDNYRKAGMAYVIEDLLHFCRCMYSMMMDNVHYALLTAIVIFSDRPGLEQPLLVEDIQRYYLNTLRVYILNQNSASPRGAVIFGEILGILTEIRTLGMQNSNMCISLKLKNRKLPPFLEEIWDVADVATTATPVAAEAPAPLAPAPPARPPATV
Description: Protoplasts were isolated from a maize suspension culture derived from BE70×A188 embryogenic callus material, which was maintained by subculturing twice weekly in MS0.5mod. (MS medium supplemented with 3% sucrose, 690 mg/l proline, 1 g/l myo-inositol, 0.2 g/l casein acid hydrolysate, 0.5 mg/l 2,4-D, pH 5.6). Cells from suspensions two days post subculture were digested in enzyme mixture (2.0% Cellulase RS, 0.2% Pectolyase Y23, 0.5 M Mannitol, 5 mM CaCl2.2H2O, 0.5% MES, pH 5.6, ˜660 mmol/kg) using ˜10 ml/g cells, incubating at 25° C., dim light, rotating gently for ˜2 hours. The digestion mixture was sieved sequentially through 250 μm and 38 μm sieves, and the filtrate centrifuged at 700 rpm for 3.5 minutes, discarding the supernatant. The protoplasts were resuspended in wash buffer (0.358 M KCl, 1.0 mM NH4NO3, 5.0 mM CaCl2.2H2O, 0.5 mM KH2PO4, pH 4.8, ˜670 mmol/kg) and pelleted as before. This washing step was repeated. The pellet was resuspended in wash buffer and the protoplasts were counted. Transformation was achieved using a Polyethylene glycol method based on Negrutiu et al. Protoplasts were resuspended at 2×10^6/ml in MaMg medium (0.4 M Mannitol, 15 mM MgCl2, 0.1% MES, pH 5.6, ˜450 mmol/kg) aliquotting 0.5 ml/treatment (i.e. 1×10^6 protoplasts/treatment). […] Protein concentrations of tissue homogenates were determined by the Bio-Rad protein assay (Bradford, 1976). […]

Row | SMILES | activity of chimeric receptor as homodimer [1] | GUS levels relative to positive control (p35SCaMVGUS) ([2]; maize protoplasts (FIG. 39)) | levels of expression relative to pMF6GRHEcR ([2]; maize protoplasts, 100 μM)
1 | CC(C)CC[C@@H](O)[C@](C)(O)[C@H]1CC[C@@]2(O)C3=CC(=O)[C@]4(O)C[C@@H](O)[C@@H](O)C[C@]4(C)[C@H]3[C@H](O)C[C@]12C [Muristerone A] | active |  | 
2 | CCc1ccc(C(=O)NN(C(=O)c2cc(C)cc(C)c2)C(C)(C)C)cc1 [RH5992, 3,5-dimethylbenzoic acid 1-1(1,1-dimethylethyl)-2(4-ethylbenzoyl)hydrazide] |  | comparable to those observed with the positive control | enhanced levels of expression
